From patent US20250129101A1, “Compound, Pharmaceutical Composition Comprising the Same and Method for Treating Cancer Using the Same” (NATIONAL TSING HUA UNIVERSITY, priority 2023, published 2025)

Legend:
4T1 R4 = assay: In vivo tumor growth inhibition, 4T1 R4 syngeneic model; set-up: species or system mouse; details: R4 tumors, BALB/c mice
Method: (§1) The mice were housed at the National Health Research Institute (NHRI) Animal Center in accordance with the Institutional Animal Care and Use Committee procedures and guidelines. The 4T1-derived cells, including 4T1, 4T1 R4, and 4T1 R8, used for implantation were harvested during log phase growth and resuspended in phosphate-buffered saline. Each mouse was injected s.c. in the right flank with 5×10^5 cells. After tumor size reached 60-100 mm 3 (D1), mice were divided into groups and received treatment with vehicle or different compounds alone or in combinations. Tumor size, in mm 3, was measured twice per week and calculated from Tumor volume=(w 2×1)/2, where w=width and 1=length in mm of the tumor. The values of tumor size were expressed as mean±SEM.

4T1 R8 = assay: In vivo tumor growth inhibition, 4T1 R8 syngeneic model; set-up: species or system mouse; details: R8 tumors, BALB/c mice, 7S9 50 mg/kg with paclitaxel 15 mg/kg
Method: as §1

4T1 R4 cells = assay: Cell viability assay, 4T1 R4 cells; assay type: cell-based, mouse; details: with 400 nM paclitaxel, 72 hr
Method: MCF-7, MDA-MB-231, MDA-MB-468, Hs578T, 4T1, and HeLa cell lines stably expressing H2B-mCherry and eGFP-tubulin (kindly provided by Dr. Anthony A. Hyman, Max-Planck-Institute for Molecular Cell Biology and Genetics, Dresden, Germany) were cultured in high-glucose Dulbecco's Modified Eagle Medium (DMEM). SK-BR-3 cells were cultured in McCoy's Modified 5a Medium. Hs578T cells were cultured in high-glucose DMEM supplemented with an additional 0.01 mg/mL bovine insulin. […] All mentioned media were supplemented with 10% fetal bovine serum (Gibco) and 1% Penicillin/Streptomycin (Corning), and cells were incubated at 37° C. in a humidified atmosphere containing 5% CO2. HEK293 cells were cultured in HE300 medium (GMEP incorporated, Japan) and maintained in suspension culture with 125 rpm and 8% CO2.
The cancer cells were cultured in a 96-well plate at a confluence of 1000-2000 cells/well with indicated drugs for specific days. When the time was up, the culture medium in the plate was aspirated and replaced with a prepared CellTiter-Glo reagent/DMEM mixture (1:1 mix of CellTiter-Glo reagent and serum-supplemented DMEM). After incubation for 10 min, the luminescence (proportional to the number of living cells) was measured with an ELISA plate reader to determine the cell viability.

4T1 cells = assay: Flow cytometry analysis of cell membrane penetration ability; assay type: cell-based, mouse; details: 2 hr of drug treatment
Method: To quantify the cell membrane penetration ability of different DHTP analogs, 4T1 cells were collected by trypsin after 2 hr of drug treatment and then transferred into microcentrifuge tubes. 4T1 cells were then resuspended into the FACS buffer (1% FBS, 2 mM EDTA, and 0.05% NaN3 in PBS). After two times of FACS buffer rinsing, these samples were detected by flow cytometry (Cyto FLEX™ FLOW Cytometer). The KO525 (405 nm laser; 525 nm filter) channel was used to detect DHTP and 7S9.

cell penetration, fluorescence signal at 510 nm emission (in words) (4T1 cells): good cell-penetrating property
SMILES: CCN1CCN(C(=O)COc2ccc(/C=c3\sc4n(c3=O)C(c3ccc(Cl)cc3)C(C(=O)OC(C)C)=C(C)N=4)cc2)CC1.O=C(O)/C=C\C(=O)O (centres unmarked) [7S9 (133), isopropyl (Z)-5-(4-chlorophenyl)-2-(4-(2-(4-ethylpiperazin-1-yl)-2-oxoethoxy)benzylidene)-7-methyl-3-oxo-2,3-dihydro-5H-thiazolo[3,2-a]pyrimidine-6-carboxylate maleate]
tumor growth inhibition (4T1 R4; 7S9 50 mg/kg intraperitoneally, 5on/2off two cycles): 29%
tumor growth inhibition, combination (4T1 R4; 7S9 50 mg/kg with paclitaxel 15 mg/kg): 70.2%
tumor growth inhibition, combination (4T1 R8): 66.2%
fold increase of cell sensitivity to 7S9 by paclitaxel (4T1 R4 cells): 10.5 fold
